Measured values from paper PMC5218480 (PLoS ONE, 2017).

System: MV-4-11 cells
Assay: Gene expression microarray analysis (Affymetrix PrimeView) and GSEA
Type: cell-based, human
Details: MV-4-11, 48 hours, 1 μM each

With `Nc1ccc(-c2cccs2)cc1NC(=O)c1ccc2c(c1)cc(C1CC1)n2CCN1CCOCC1` [ACY-1035] the “genes up-regulated greater than 2-fold relative to vehicle control” value was 386 genes.
